Data: patent US9302986B2, “Substituted 3-haloallylamine inhibitors of ASSAO and uses thereof” (Boehringer Ingelheim International GmbH, priority 2012, dated 2016)
Counter-ions that a name gives are not always drawn.

What was measured:
Recombinant human DAO = Recombinant human DAO (Homo sapiens (Human), UniProt P19801); assay: Inhibition of human recombinant diamine oxidase; assay type: biochemical; settings: putrescine 200 μM
[1] = biological target: Endogenous SSAO/VAP-1 in rat fat (Rattus norvegicus (Rat), UniProt O08590); assay: Inhibition of SSAO/VAP-1 in rat fat homogenate; assay type: biochemical; settings: benzylamine 30 μM
Method: Abdominal fat from BALB/c mice, Wistar or Sprague Dawley rats, which are tissues enriched with SSAO/VAP-1-were surgically removed. For every gram of animal abdominal fat tissue, 1 mL of 0.1 M NaPO4 buffer (pH 7.4) was added. Tissues were homogenized using IKA Ultra-Turrax T 10 homogenizer for 3 min, homogenate was centrifuged for 15 min at 3000×g. The middle layer (clear supernatant) was removed without disturbing the top layer (high fat content) or the debris on the bottom of the tube. SSAO/VAP-1 activity was determined by checking the fluorescent signal. Km/Vmax values were determined and the fat homogenate was aliquoted and stored at −80 C until assays were performed.

recombinant human VAP-1 = recombinant human VAP-1 (Homo sapiens, UniProt Q16853); assay: Inhibition of human recombinant SSAO/VAP-1 expressed in HMEC cells (cell lysate)
Method: A clone stably expressing human SSAO/VAP-1 was selected and was stored in liquid nitrogen until cell lysate was required for colorimetric assay. Briefly, HMEC cell expressing human SSAO/VAP-1 were grown in several 10 cm petri dishes, once the cells reached 100% confluency, cells were harvested and homogenates were prepared. Cells were washed twice with 5 mL of chilled HES buffer (20 mM HEPES, 1 mM EDTA, 250 mM sucrose, pH 7.4). HES buffer containing 1× protease inhibitor (Sigma Aldrich) and added and cells were incubated on ice for 3 min. Buffer was removed and cells were scraped and transferred to a centrifuge tube. Cell lysates were prepared by passing through 23 G needle for, 10 times and followed by 27 G needle for 10 times. Alternatively the cell lysates were prepared by using IKA Ultra-Turrax T 10 homogenizer for 3 min for every 10 mL of cell suspensions. Cells were then spun for 5 min at 300×g. The clear supernatant was transferred to new centrifuge tube and stored at −80° C. until colorimetric assay was performed. Prior to the assay, 0.5 mM pargyline was added in order to inhibit any residue MAO activities. […] Briefly, 50 μL of cell lysate was incubated with test compounds for 30 min at 37° C.

Recombinant human MAO-B = Recombinant human MAO-B (Homo sapiens (Human), UniProt P27338); assay: Inhibition of human recombinant MAO-B; assay type: biochemical; settings: benzylamine 100 μM
Method: This vector containing human SSAO/VAP-1 residues was transfected into CHO-K1 glycosylation mutant cell line, Lec 8. A clone stably expressing human SSAO/VAP-1 was isolated and cultured in large scale. Active human SSAO/VAP-1 was purified and recovered using immunoaffinity chromatography. This was used as source for SSAO/VAP-1 activity. A high-throughput colorimetric assay was developed using either 96 or 384 well format. Briefly, in a standard 96 well plate assay 50 μL of purified human SSAO/VAP-1 (0.25 μg/mL) in 0.1 M NaPO4 buffer (pH 7.4) was added into each well.
The specificity of invention compounds was tested by determining their ability to inhibit MAO-B activities in vitro. Recombinant human MAO-B (0.06 mg/mL; Sigma Aldrich) was used as source of MAO-B enzyme activities.

[2] = tested on: LPS-induced neuroinflammation; assay: Parkinson's disease Model A: systemic exposure to LPS; assay type: in vivo, Long Evans rats; settings: 2 mg/kg ip
Method: Parkinson's disease is a pathological, age-related neurodegenerative disorder, characterized by a specific and progressive degeneration of dopaminergic neurons.
Long Evans rats were dosed intraperitoneal (ip) with 2 mg/kg of Compound 9 or vehicle 1 h before the first (time 0 h) and the third (time 24 h) injections of LPS. At time 0 the animals received a dose of 10 mg/kg of LPS. At time 6 and 24 h the animals were dosed with 3 mg/kg of LPS solution, ip. 30 h after the first LPS injection, the animals received ip injections of lethabarb and were transcardially perfused with 400 ml. PBS at 4° C. followed by 400 ml of 4% paraformaldehyde (PFA). The brains were post fixed overnight in 4% PFA at 4° C. followed by 20% sucrose solution for 24 h. 30 μm sections were collected and stained for immunofluorescence, immunohistochemistry and western blot analysis.

[3] = tested on: LPS-induced lung inflammation; assay: Acute lung inflammation in the LPS driven model; settings: 2 mg/kg
Method: The incision was closed with wound clips and the mice returned to cages.
Six hours after LPS/saline injection, the mice were anesthetized, the wound clips removed, the trachea was cannulated with a 23G blunt needle, and the lungs lavaged eight times with 0.5 ml heparinized saline. The lavage was pooled, gently inverted, and a sample retained for white blood cell (WBC) differential analysis. The remainder of the lavage was centrifuged, the supernatants used for cytokine analysis.

Chain of Recombinant human MAO-B (P27338 whole entry): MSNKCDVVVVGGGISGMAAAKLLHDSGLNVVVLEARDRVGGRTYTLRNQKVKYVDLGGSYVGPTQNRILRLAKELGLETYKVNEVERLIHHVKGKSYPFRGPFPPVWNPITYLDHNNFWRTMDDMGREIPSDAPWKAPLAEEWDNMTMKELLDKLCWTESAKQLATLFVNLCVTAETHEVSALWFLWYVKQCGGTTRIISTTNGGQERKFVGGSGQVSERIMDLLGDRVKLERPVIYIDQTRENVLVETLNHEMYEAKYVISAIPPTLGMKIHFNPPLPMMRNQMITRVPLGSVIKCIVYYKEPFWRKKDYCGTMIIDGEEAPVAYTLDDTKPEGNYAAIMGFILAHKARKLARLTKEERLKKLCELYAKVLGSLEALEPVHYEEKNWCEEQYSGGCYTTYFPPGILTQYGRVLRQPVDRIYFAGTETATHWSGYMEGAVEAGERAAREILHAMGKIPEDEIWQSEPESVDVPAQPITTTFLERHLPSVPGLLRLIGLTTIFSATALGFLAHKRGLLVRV
Chain of Recombinant human DAO (P19801 20-751): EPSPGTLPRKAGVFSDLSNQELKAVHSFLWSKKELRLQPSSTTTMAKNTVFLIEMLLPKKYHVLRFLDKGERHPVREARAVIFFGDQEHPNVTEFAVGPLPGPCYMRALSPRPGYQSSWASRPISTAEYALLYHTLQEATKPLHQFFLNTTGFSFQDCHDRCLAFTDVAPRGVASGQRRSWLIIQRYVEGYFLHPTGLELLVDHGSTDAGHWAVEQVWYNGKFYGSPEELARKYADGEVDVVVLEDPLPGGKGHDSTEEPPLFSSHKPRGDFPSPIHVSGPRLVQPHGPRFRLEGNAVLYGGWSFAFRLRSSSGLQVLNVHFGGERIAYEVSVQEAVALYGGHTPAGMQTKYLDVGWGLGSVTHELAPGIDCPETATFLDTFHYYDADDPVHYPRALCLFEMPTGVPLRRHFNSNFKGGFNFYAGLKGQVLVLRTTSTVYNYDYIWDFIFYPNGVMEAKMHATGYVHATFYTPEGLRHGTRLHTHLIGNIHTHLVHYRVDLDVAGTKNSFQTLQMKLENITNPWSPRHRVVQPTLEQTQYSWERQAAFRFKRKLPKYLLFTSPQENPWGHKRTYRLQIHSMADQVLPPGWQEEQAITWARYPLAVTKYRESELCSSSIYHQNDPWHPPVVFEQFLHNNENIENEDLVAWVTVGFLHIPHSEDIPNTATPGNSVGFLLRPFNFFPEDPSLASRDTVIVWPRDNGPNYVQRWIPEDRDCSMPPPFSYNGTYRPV
Chain of Endogenous SSAO/VAP-1 in rat fat (O08590 whole entry): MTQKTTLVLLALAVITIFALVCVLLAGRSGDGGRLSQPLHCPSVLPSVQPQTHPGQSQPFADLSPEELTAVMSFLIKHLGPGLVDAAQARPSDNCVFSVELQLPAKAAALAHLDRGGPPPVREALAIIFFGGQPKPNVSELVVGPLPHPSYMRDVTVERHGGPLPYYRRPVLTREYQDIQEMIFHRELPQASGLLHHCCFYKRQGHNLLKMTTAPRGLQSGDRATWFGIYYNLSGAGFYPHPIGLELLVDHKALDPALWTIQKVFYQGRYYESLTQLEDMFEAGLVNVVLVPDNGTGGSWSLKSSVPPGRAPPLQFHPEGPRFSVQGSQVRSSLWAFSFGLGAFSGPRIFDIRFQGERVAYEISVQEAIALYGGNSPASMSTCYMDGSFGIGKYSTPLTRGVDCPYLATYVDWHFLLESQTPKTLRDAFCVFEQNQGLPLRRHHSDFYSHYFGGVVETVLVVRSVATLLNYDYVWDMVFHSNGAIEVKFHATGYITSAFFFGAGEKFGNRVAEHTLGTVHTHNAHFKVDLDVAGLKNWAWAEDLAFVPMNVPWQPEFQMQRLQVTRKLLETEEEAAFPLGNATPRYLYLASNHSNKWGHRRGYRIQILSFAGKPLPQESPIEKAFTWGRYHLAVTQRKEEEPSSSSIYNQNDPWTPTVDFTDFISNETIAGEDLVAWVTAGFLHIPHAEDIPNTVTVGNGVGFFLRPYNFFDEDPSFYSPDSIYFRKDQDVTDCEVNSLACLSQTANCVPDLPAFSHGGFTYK

| Compound | IC50 (Recombinant human DAO) [nM] | IC50 [1] [nM] | IC50 (recombinant human VAP-1) [nM] | IC50 (Recombinant human MAO-B) [nM] | neutrophil infiltration in the dorso-lateral striatum and hippocampus ([2]; 30 h after first LPS injection) | microglial cell recruitment and activation in the substantia nigra and dorso-lateral striatum ([2]; dendrites length, surface and volume) | IL-6 levels ([3]; lavage supernatant) | TNF-α levels ([3]; lavage supernatant) | neutrophil infiltration ([3]; lung lavage six hours after LPS) |
| --- | --- | --- | --- | --- | --- | --- | --- | --- | --- |
| NC/C(=C/F)COc1ccc(C(N)=O)cc1 [Compound 2, (Z)-4-(2-(Aminomethyl)-3-fluoroallyloxy)benzamide] | < 100 | < 100 | < 100 | > 1000 | – | – | – | – | – |
| NC/C(=C\F)COc1ccc(C(N)=O)cc1 [Compound 3, (E)-4-(2-(Aminomethyl)-3-fluoroallyloxy)benzamide] | > 1000 | < 100 | < 100 | > 10000 | – | – | – | – | – |
| CN(C)C(=O)c1ccc(OC/C(=C\F)CN)c(F)c1 [Compound 4, (Z)-4-(2-(Aminomethyl)-3-fluoroallyloxy)-3-fluoro-N,N-dimethylbenzamide] | < 1000 | < 100 | – | > 100 | – | – | – | – | – |
| CN(C)C(=O)c1ccc(OC/C(=C\F)CN)c(Cl)c1 [Compound 6, (Z)-4-(2-(Aminomethyl)-3-fluoroallyloxy)-3-chloro-N,N-dimethylbenzamide] | < 1000 | – | – | > 1000 | – | – | – | – | – |
| COc1cc(C(=O)N(C)C)ccc1OCC(=CF)CN [Compound 7, 4-(2-(Aminomethyl)-3-fluoroallyloxy)-3-methoxy-N,N-dimethylbenzamide] | < 1000 | – | < 100 | > 10000 | – | – | – | – | – |
| CN(C)C(=O)c1ccc(SCC(=CF)CN)cc1 [Compound 8, 4-(2-(Aminomethyl)-3-fluoroallylthio)-N,N-dimethylbenzamide] | – | – | < 100 | > 1000 | – | – | – | – | – |
| NC/C(=C/F)COc1ccc(S(N)(=O)=O)cc1 [Compound 9, (Z)-4-(2-(Aminomethyl)-3-fluoroallyloxy)benzenesulfonamide] | < 1000 | < 100 | < 100 | > 10000 | reduced | reduction | diminution | diminution | significant reduction |
| CN(C)S(=O)(=O)c1ccc(OC/C(=C\F)CN)cc1 [Compound 10, (Z)-4-(2-(Aminomethyl)-3-fluoroallyloxy)-N,N-dimethylbenzenesulfonamide] | > 1000 | < 100 | – | > 10000 | – | – | – | – | – |
| NC/C(=C\F)COc1ccc(S(N)(=O)=O)cc1 [Compound 11, (E)-4-(2-(Aminomethyl)-3-fluoroallyloxy)benzenesulfonamide] | > 10000 | < 100 | < 100 | > 10000 | – | – | – | – | – |
| CN(C)C(=O)c1ccc(OC/C(=C/F)CN)cc1 [Compound 13, hydrochloride] | > 1000 | < 100 | < 100 | > 100 | – | – | – | – | – |
| CN(C)S(=O)(=O)c1ccc(OC/C(=C/F)CN)cc1 [Compound 14, (E)-4-(2-(Aminomethyl)-3-fluoroallyloxy)-N,N-dimethylbenzenesulfonamide] | > 10000 | < 100 | – | > 10000 | – | – | – | – | – |
| CN(C)S(=O)(=O)c1cccc(OC/C(=C\F)CN)c1 [Compound 15, (Z)-3-(2-(Aminomethyl)-3-fluoroallyloxy)-N,N-dimethylbenzenesulfonamide] | – | < 100 | – | > 100000 | – | – | – | – | – |
| CN(C)C(=O)c1ccc(OC/C(=C\F)CN)cc1 [Compound 18, (Z)-4-(2-(Aminomethyl)-3-fluoroallyloxy)-N,N-dimethylbenzamide] | < 100 | < 100 | < 100 | > 100 | – | – | – | – | – |
| CN(C)C(=O)c1ccc(OC/C(=C\F)CN)c(Br)c1 [Compound 20, (Z)-4-(2-(Aminomethyl)-3-fluoroallyloxy)-3-bromo-N,N-dimethylbenzamide] | < 1000 | – | – | > 1000 | – | – | – | – | – |
| CCN(CC)C(=O)c1ccc(OC/C(=C/F)CN)cc1 [Compound 24, (E)-4-(2-(Aminomethyl)-3-fluoroallyloxy)-N,N-diethylbenzamide] | > 10000 | < 100 | – | > 1000 | – | – | – | – | – |
| CNC(=O)c1ccc(OC/C(=C/F)CN)cc1 [Compound 25, (E)-4-(2-(Aminomethyl)-3-fluoroallyloxy)-N-methylbenzamide] | < 1000 | < 100 | < 100 | > 1000 | – | – | – | – | – |
| Cc1cc(OC/C(=C\F)CN)ccc1C(=O)N(C)C [Compound 26, (Z)-4-(2-(Aminomethyl)-3-fluoroallyloxy)-N,N,2-trimethylbenzamide] | < 1000 | – | < 100 | > 1000 | – | – | – | – | – |
| CNS(=O)(=O)c1ccc(OC/C(=C/F)CN)cc1 [Compound 28, (E)-4-(2-(Aminomethyl)-3-fluoroallyloxy)-N-methylbenzenesulfonamide] | > 10000 | < 100 | – | > 10000 | – | – | – | – | – |
| CNS(=O)(=O)c1ccc(OC/C(=C\F)CN)cc1 [Compound 29, (Z)-4-(2-(Aminomethyl)-3-fluoroallyloxy)-N-methylbenzenesulfonamide] | > 1000 | < 100 | – | > 10000 | – | – | – | – | – |
| CCNS(=O)(=O)c1ccc(OC/C(=C/F)CN)cc1 [Compound 30, (E)-4-(2-(Aminomethyl)-3-fluoroallyloxy)-N-ethylbenzenesulfonamide] | > 10000 | < 100 | – | > 10000 | – | – | – | – | – |
| CCNS(=O)(=O)c1ccc(OC/C(=C\F)CN)cc1 [Compound 31, (Z)-4-(2-(Aminomethyl)-3-fluoroallyloxy)-N-ethylbenzenesulfonamide] | < 1000 | < 100 | – | > 1000 | – | – | – | – | – |
| CC(C)NS(=O)(=O)c1ccc(OC/C(=C/F)CN)cc1 [Compound 32, (E)-4-(2-(Aminomethyl)-3-fluoroallyloxy)-N-isopropylbenzenesulfonamide] | > 10000 | < 100 | – | > 10000 | – | – | – | – | – |
| CC(C)NS(=O)(=O)c1ccc(OC/C(=C\F)CN)cc1 [Compound 33, (Z)-4-(2-(Aminomethyl)-3-fluoroallyloxy)-N-isopropylbenzenesulfonamide] | < 1000 | < 100 | – | > 10000 | – | – | – | – | – |
| NC/C(=C/F)CCc1ccc(F)cc1 [Mofegiline, reference compound] | – | 6 | – | – | – | – | – | – | – |
